This note sets out measurements from article PMC9028889 (Pharmaceuticals, 2022).

Data set [1] relates to MCF10A cells. Nature of the data set: clonogenic survival / colony formation assay, MCF10A. The note with it: for EC50: MCF-10A, clonogenic survival assay, human normal immortalized mammary epithelial cell line; for colony formation: MCF10A, 0, 1, 5, and 10 μM, 2 weeks. Format: cell-based, human. How it is done:
(§1) MCF10A, T47D, and MB231 cells (5 × 10^3) were seeded in 24-well plates, and cells were exposed to different CMC conjugates at different concentrations (0, 1, 5, and 10 μM) for 2 weeks, changing the medium for every 3 days with respective CMC conjugates at the indicated concentrations. After 2 weeks, cells were washed with PBS and fixed in 100% methanol for 30 min followed by staining with KaryoMax Giemsa stain for 1 h. The unfound dyes were removed by washing the wells with water and dried overnight at room temperature. Finally, cells were lysed with lysis buffer (1% SDS in 0.2 N NaOH) for 5 min, and the absorbance of the released dye was measured at 630 nm, as described before. Values are shown as mean ± SD of three experiments with 3 wells in each, for a total of 9 repeats.

The subject of data set [2] is T47D cells. Briefly: clonogenic survival / colony formation assay, T47D. Format: cell-based, human. The following applies: for EC50: Homo sapiens, T47D, clonogenic survival assay, ER+ BC cell line; for colony formation: T47D, 0, 1, 5, and 10 μM, 2 weeks. How it is done: as §1
In data set [3] the test system is MB231 cells. Briefly: clonogenic survival / colony formation assay, MB231. Format: cell-based, human. The note with it: for EC50: Homo sapiens, clonogenic survival assay, TNBC cell line; for colony formation: MB231, 0, 1, 5, and 10 μM, 2 weeks. How it is done:
as §1

The test system of a further data set is normal C57BL/6 mice. Nature of the data set: toxicity study in normal C57BL/6 mice. The note with it: 50 and 100 mg/kg body, oral gavage daily for 7 days; for morphology (kidney, liver, lung): H&E. Format: in vivo. How it is done:
We tested whether the synthesized conjugates are free of toxicity and safer to use in human normal cells and animal models. We treated human normal immortalized cell line (MCF10A) and normal C57BL/6 mice at different concentrations and time points.
Administration of CMC compounds to the mice: For toxicity studies, CMC1 and CMC2 conjugates at two different concentrations (50 and 100 mg/kg body) were given oral gavage daily for 7 days. At the end of the experiment, animals were euthanized, kidneys, liver, and lungs were analyzed for morphological changes. We also collected blood samples to measure Creatinine using a Creatinine assay kit (obtained from Millipore Sigma, Burlington, MA, USA, Catalog # MAK080), Alanine aminotransferase (ALT), using an ALT assay kit (obtained from the Millipore Sigma, Catalog #MAK053), Aspartate aminotransferase (AST), using an AST assay kit obtained from Millipore Sigma, Catalog #MAK055), and blood urea and nitrogen (BUN), using a urea nitrogen assay kit (obtained from ThermoFisher Scientific, Waltham, MA, USA, Catalog #EIABUN) as per the manufacturer’s instruction.

Another data set deals with MMTV–PyMT–Tg mice. Briefly: spontaneous mouse mammary tumor model. The following applies: 10 mg/kg body, three times a week by oral gavage for 7 weeks. Format: in vivo. How it is done: We chose MMTV–PyMT–Tg mouse mainly because the tumor formation and progression in this mouse is characterized by four different stages (hyperplasia, adenoma/mammary intra-epithelial neoplasia, early and late carcinoma) and also mimics human BC; the tumor develops first as ER-positive (ER^+) but ultimately becomes ER-negative BC (ER^− BC). We randomly assigned 6-week-old MMTV–PyMT–Tg mice into two groups (6 mice in each); one control and one CMC2 treated (10 mg/kg body, three times a week by oral gavage for 7 weeks). We measured the tumor volume twice a week. Tumor volume was calculated using the formula V = L × W^2/2, where L represents the largest tumor diameter, and W represents the smallest tumor diameter. Mice were euthanized after seven weeks of treatment, and tumor tissues were collected. The total tumor weight was measured. Tumor tissue sections were prepared and stained with Hematoxylin and Eosin (H&E) for morphometric analysis and Ki67 for cell proliferation analysis.
Similarly, six-week-old MMTV–PyMT–Tg mice were grouped into two groups—one control and one CMC2 treatment. The control mice received PBS, and the CMC2-treated group received CMC2 conjugate (10 mg/kg body by oral gavage, three times a week) for 7 weeks. We monitored animal weight and measured the tumor volume twice a week. At the end of the experimental period, mice were euthanized, and tumor tissues were harvested and measured for tumor weight. Tumor tissues were processed to extract RNA and protein and fixed in 10% buffered formalin phosphate solution (obtained from Fisher Scientific, Catalog #SF100-4) for morphological analysis.

Data set [4] concerns MCF10A cells. Briefly: MTT cell proliferation assay, MCF10A. Format: cell-based, human. The note with it: MCF10A, 0, 1, 5, and 10 μM, 72 h. How it is done: (§2) MCF10A, T47D, and MB231 cells (5 × 10^3) were seeded in 96-well plates and incubator at 37 °C with 5% CO2 in MEGM, DMEM, and RPMI medium (100 μL), respectively. After 24 h, the medium was replaced with the CMC conjugates at different concentrations (0, 1, 5, and 10 μM) for 72 h. After 72 h, 10 μL MTT reagent was added to each well and incubated for 2 h for the formation of purple formazan and then added 100 μL detergent to dissociate the formazan precipitate and measured at 570 nm. Values are shown as mean ± SD of three experiments with 3 wells in each, a total of 9 repeats.

For data set [5], the system named is T47D cells. Briefly: MTT cell proliferation assay, T47D. Format: cell-based, human. The following applies: T47D, 0, 1, 5, and 10 μM, 72 h. The method, then: as §2
Data set [6] relates to MB231 cells. Nature of the data set: MTT cell proliferation assay, MB231. Format: cell-based, human. The note with it: MB231, 0, 1, 5, and 10 μM, 72 h. How it is done:
as §2

One may read the EC50 as the concentration at which the effect is half-maximal. A lower EC50 goes with higher potency in that assay. Broadly, the melting point is the temperature of the solid-liquid transition.

As for `COc1cc(/C=C/C(=O)/C=C(O)/C=C/c2ccc(OC(=O)C(Cl)Cl)c(OC)c2)ccc1OC(=O)C(Cl)Cl` [CMC1, ((1E,3Z,6E)-3-Hydroxy-5-oxohepta-1,3,6-triene-1,7-diyl)bis(2-methoxy-4,1-phenylene) bis(2,2-dichloroacetate)], the EC50 with MCF10A cells [1] is 8980 nM. Moreover, in the data set on T47D cells [2], the response was half-maximal at 1650 nM (EC50). Besides, the EC50 in the data set with MB231 cells [3] worked out at 424 nM. Moreover, in the data set on normal C57BL/6 mice, the body weight entry was “no changes”; the “kidney functions (serum creatinine and blood urea and nitrogen)” value is “no changes”; the “liver functions (ALT and AST)” value is recorded as “no changes”; the “morphology (kidney, liver, lung)” value is recorded as “no changes”.
For `COc1cc(/C=C/C(=O)/C=C(O)/C=C/c2ccc(OC(=O)CNC(=O)C(Cl)Cl)c(OC)c2)ccc1OC(=O)CNC(=O)C(Cl)Cl` [CMC2, ((1E,3Z,6E)-3-Hydroxy-5-oxohepta-1,3,6-triene-1,7-diyl)bis(2-methoxy-4,1-phenylene) bis(2-(2,2-dichloroacetamido)acetate)], the EC50 in the data set with MCF10A cells [1] was determined as 9680 nM. The molecule further showed an EC50 with T47D cells [2] of 1420 nM. Moreover, the EC50 in the data set with MB231 cells [3] was found to be 778 nM. For the same molecule, in the data set with normal C57BL/6 mice, the body weight result is reported as “no changes”; the “kidney functions (serum creatinine and blood urea and nitrogen)” value is on record as “no changes”; the “liver functions (ALT and AST)” value was “no changes”; the “morphology (kidney, liver, lung)” value is reported as “no changes”. Also, in the data set with MMTV–PyMT–Tg mice, the lung nodules entry is “reducing”; the “normal body weight and organ histology” value is listed as “without affecting”; the overall survival rate entry is listed as “increased”; the “tumor cell proliferation (Ki67) in mammary and lung tumor tissue” value is listed as “inhibiting”. In addition, in the data set with MMTV–PyMT–Tg mice, the tumor growth entry was “significantly reduced”.
Regarding `COc1cc(/C=C/C(=O)/C=C(O)/C=C/c2ccc(OC(=O)[C@H](C)NC(=O)C(Cl)Cl)c(OC)c2)ccc1OC(=O)[C@H](C)NC(=O)C(Cl)Cl` [CMC3, ((1E,3Z,6E)-3-Hydroxy-5-oxohepta-1,3,6-triene-1,7-diyl)bis(2-methoxy-4,1-phenylene) (2S,2’S)-bis(2-(2,2-dichloroacetamido)propanoate)], the EC50 in the data set with MCF10A cells [1] worked out at 9710 nM; with T47D cells [2], 1600 nM; with MB231 cells [3], 518 nM.
For the molecule `COc1cc(/C=C/C(=O)/C=C(O)/C=C/c2ccc(OC(=O)CCNC(=O)C(Cl)Cl)c(OC)c2)ccc1OC(=O)CCNC(=O)C(Cl)Cl` [CMC4, ((1E,3Z,6E)-3-Hydroxy-5-oxohepta-1,3,6-triene-1,7-diyl)bis(2-methoxy-4,1-phenylene) bis(3-(2,2-dichloroacetamido)propanoate)], the melting point was 140 to 142 °C. The same molecule displayed an EC50 in the data set on MCF10A cells [1] of 8860 nM. Besides, in the data set on T47D cells [2], the EC50 is 1260 nM. In the data set on MB231 cells [3], this molecule registered an EC50 of 1130 nM.
As for `COc1cc(/C=C/C(=O)/C=C(O)/C=C/c2ccc(OC(=O)[C@H](Cc3ccccc3)NC(=O)C(Cl)Cl)c(OC)c2)ccc1OC(=O)[C@H](Cc1ccccc1)NC(=O)C(Cl)Cl` [CMC5, ((1E,3Z,6E)-3-Hydroxy-5-oxohepta-1,3,6-triene-1,7-diyl)bis(2-methoxy-4,1-phenylene) (2S,2’S)-bis(2-(2,2-dichloroacetamido)-3-phenylpropanoate)], the EC50 is 9600 nM in the data set with MCF10A cells [1], 1240 nM in the data set on T47D cells [2] and 838 nM in the data set on MB231 cells [3].
As for `COc1cc(/C=C/C(=O)/C=C(O)/C=C/c2ccc(OC(=O)CCCNC(=O)C(Cl)Cl)c(OC)c2)ccc1OC(=O)CCCNC(=O)C(Cl)Cl` [CMC6, ((1E,3Z,6E)-3-Hydroxy-5-oxohepta-1,3,6-triene-1,7-diyl)bis(2-methoxy-4,1-phenylene) bis(4-(2,2-dichloroacetamido)butanoate)], the melting point is 130 to 132 °C. Also, in the data set on MCF10A cells [1], a half-maximal effect (EC50) was put at 9470 nM. Also, the EC50 in the data set with T47D cells [2] came out at 1370 nM. Also, the EC50 with MB231 cells [3] is 942 nM.
With `COc1cc(/C=C/C(=O)CC(=O)/C=C/c2ccc(O)c(OC)c2)ccc1O` [CUR, Curcumin, reference compound], the results for the colony formation result in the data set on MCF10A cells [1], in the data set on T47D cells [2] and in the data set on MB231 cells [3] were “not”, “inhibited” and “inhibited”, respectively. In addition, the entries for the “cell viability / proliferation (MTT)” value with MCF10A cells [4], in the data set with T47D cells [5] and in the data set with MB231 cells [6] were “not”, “inhibited” and “inhibited”, respectively.
As for `O=C(O)C(Cl)Cl` [DCA, Dichloroacetate, reference compound], the colony formation entry with MCF10A cells [1] was “not”; with T47D cells [2], “inhibited”; with MB231 cells [3], “inhibited”. The entries for the “cell viability / proliferation (MTT)” value in the data set on MCF10A cells [4], in the data set on T47D cells [5] and in the data set on MB231 cells [6] were “not”, “inhibited” and “inhibited”, respectively.
